In paper PMC9021598, “Structural Basis of Human Dimeric α-Amino-β-Carboxymuconate-ε-Semialdehyde Decarboxylase Inhibition With TES-1025” (Frontiers in Molecular Biosciences, 2022):

Molecular target: T1, human α-amino-β-carboxymuconate-ε-semialdehyde decarboxylase (ACMSD) (Homo sapiens, UniProt Q8TDX5)
T1 construct: recombinant hACMSD expressed in Pichia pastoris; homodimer
Assay: X-ray co-crystal structure at […] Å; Ki from coupled spectrophotometric assay (Dixon tight-binding competitive inhibition)
Format: biochemical

T1 sequence (Q8TDX5 whole entry): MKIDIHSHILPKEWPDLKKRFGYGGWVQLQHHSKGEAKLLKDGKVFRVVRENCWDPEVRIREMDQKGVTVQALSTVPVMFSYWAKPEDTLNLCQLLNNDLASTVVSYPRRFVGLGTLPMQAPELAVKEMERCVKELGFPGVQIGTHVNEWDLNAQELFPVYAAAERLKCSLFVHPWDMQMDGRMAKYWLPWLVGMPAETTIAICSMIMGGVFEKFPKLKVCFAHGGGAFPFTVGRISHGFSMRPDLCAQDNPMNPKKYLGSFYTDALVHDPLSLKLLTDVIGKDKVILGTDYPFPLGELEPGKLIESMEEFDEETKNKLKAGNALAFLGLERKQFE

## N#Cc1c(-c2cccs2)nc(SCc2cccc(CC(=O)O)c2)[nH]c1=O [compound 4, 2-[3-[(5-cyano-6-oxo-4-thiophen-2-yl-1H-pyrimidin-2-yl)sulfanylmethyl]phenyl]acetic acid]
  Ki: 0.85 ± 0.22 nM
